target: recombinant 15-PGDH (Homo sapiens (Human), UniProt P15428); experiment: inhibition of enzymatic activity of recombinant 15-PGDH, in vitro assay; type: biochemical; conditions: Enzyme Inhibitor IC50 (nM) at 1 nM 15-PGDH, 1 nM recombinant 15-PGDH
From the text: This Example provides data on a group of structural analogues of SW033291. Data provided is the IC50 of each compound for inhibiting enzymatic activity of recombinant 15-PGDH in an in vitro assay. Recombinant 15-PGDH is human unless otherwise specified. Additionally, the example provides aqueous solubility data for selected analogues in pH 7 or pH 4 citrate buffer solution.

recombinant 15-PGDH, sequence (P15428 whole entry): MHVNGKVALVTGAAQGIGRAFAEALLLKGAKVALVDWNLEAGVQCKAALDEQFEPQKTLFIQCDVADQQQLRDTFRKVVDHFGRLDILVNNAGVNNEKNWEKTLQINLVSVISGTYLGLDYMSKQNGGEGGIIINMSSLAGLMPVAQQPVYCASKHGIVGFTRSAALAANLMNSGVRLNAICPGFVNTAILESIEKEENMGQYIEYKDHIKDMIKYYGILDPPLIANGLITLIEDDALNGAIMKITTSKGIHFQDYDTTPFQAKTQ

Row | IC50 [nM] | SMILES
1 | 0.52 | CCCC[S+]([O-])c1sc2nc(-c3cccnc3)nc(-c3ccccc3)c2c1N (single isomer, unassigned) [74A, 6-(butylsulfinyl)-4-phenyl-2-(pyridin-3-yl)thieno[2,3-d]pyrimidin-5-amine]
2 | 28 | CCCC[S+]([O-])c1sc2nc(-c3cccnc3)nc(-c3ccccc3)c2c1N (single isomer, unassigned) [74B, 6-(butylsulfinyl)-4-phenyl-2-(pyridin-3-yl)thieno[2,3-d]pyrimidin-5-amine]

same assay, conditions: Enzyme Inhibitor IC50 (nM) at 5 nM 15-PGDH, 5 nM recombinant 15-PGDH

Row | IC50 [nM] | SMILES
3 | 4 to 20 | CCCC[S+]([O-])c1sc2nc(-c3ccc(OC)nc3)cc(-c3ccccc3)c2c1N (centres unmarked) [compound 23]
4 | 4 to 20 | CCCC[S+]([O-])c1sc2nc(C3CC3)cc(-c3ccccc3)c2c1N (centres unmarked) [compound 25]

same assay, conditions: read-out: Enzyme Inhibitor IC50 (nM) at 1 nM 15-PGDH; 1 nM recombinant 15-PGDH

Row | SMILES | IC50 [nM]
5 | CCCC[S@@+]([O-])c1sc2nc(-c3cccnc3)cc(-c3cnc(C)n3C)c2c1N [38A] | 0.76
6 | CCCC[S@+]([O-])c1sc2nc(-c3cccnc3)cc(-c3cnc(C)n3C)c2c1N [38B] | 27
7 | CCCC[S@@+]([O-])c1sc2nc(-c3cncnc3)cc(-c3cnc(C)n3C)c2c1N [39A] | 0.72
8 | CCCC[S@+]([O-])c1sc2nc(-c3cncnc3)cc(-c3cnc(C)n3C)c2c1N [39B] | > 100
9 | CCCC[S@@+]([O-])c1sc2nc(-c3cccnc3)cc(-c3ccccc3)c2c1N [41A] | 0.73
10 | CCCC[S@+]([O-])c1sc2nc(-c3cccnc3)cc(-c3ccccc3)c2c1N [41B] | 27
11 | CCCC[S@+]([O-])c1sc2nc(-c3cncnc3)cc(-c3ccccc3)c2c1N [42A] | 30
12 | CCCC[S@@+]([O-])c1sc2nc(-c3cncnc3)cc(-c3ccccc3)c2c1N [42B] | 0.59
13 | CCCC[S@@+]([O-])c1sc2nc(-c3cccnc3)cc(-c3cncn3C)c2c1N [43A] | 0.58
14 | CCCC[S@+]([O-])c1sc2nc(-c3cccnc3)cc(-c3cncn3C)c2c1N [43B] | > 100
15 | CCCC[S@@+]([O-])c1sc2nc(-c3cnn(C)c3)cc(-c3ccccc3)c2c1N [46A] | 0.7
16 | CCCC[S@+]([O-])c1sc2nc(-c3cnn(C)c3)cc(-c3ccccc3)c2c1N [46B] | > 100
17 | CCCC[S@@+]([O-])c1sc2nc(-c3ccncn3)cc(-c3ccccc3)c2c1N [47A] | 0.65
18 | CCCC[S@+]([O-])c1sc2nc(-c3ccncn3)cc(-c3ccccc3)c2c1N [47B] | 79
19 | CCCC[S@@+]([O-])c1sc2nc(-c3nccs3)cc(-c3cn(C)cn3)c2c1N [48A] | 0.72
20 | CCCC[S@+]([O-])c1sc2nc(-c3nccs3)cc(-c3cn(C)cn3)c2c1N [48B] | > 100
21 | COCCC[S@@+]([O-])c1sc2nc(-c3cccnc3)cc(-c3cncn3C)c2c1N [50A] | 0.57
22 | COCCC[S@+]([O-])c1sc2nc(-c3cccnc3)cc(-c3cncn3C)c2c1N [50B] | > 100
23 | CCCC[S@@+]([O-])c1sc2nc(-c3cccnc3)cc(-c3cnc(C4CC4)n3C)c2c1N [52A, (R)-2-(butylsulfinyl)-4-(2-cylcopropyl-1-methyl-1H-imidazol-5-yl)-6-(pyridine-3-yl)thieno[2,3-b]pyridine-3-amine] | 0.75
24 | CCCC[S@+]([O-])c1sc2nc(-c3cccnc3)cc(-c3nnc(C4CC4)n3C)c2c1N [52B] | > 100

Second part, the compound after the results:

Row | IC50 [nM] | SMILES
25 | 0.45 | CCCC[S@@+]([O-])c1sc2nc(-c3cccnc3)cc(-c3cccnc3)c2c1N [54A]
26 | > 100 | CCCC[S@+]([O-])c1sc2nc(-c3cccnc3)cc(-c3cccnc3)c2c1N [54B]
27 | 0.55 | CCCC[S@@+]([O-])c1sc2nc(-c3cccnc3)cc(-c3ccccn3)c2c1N [58A]
28 | 0.13 | CCCC[S@+]([O-])c1sc2nc(-c3cccnc3)cc(-c3ccccn3)c2c1N [58B]
29 | 0.5 | CCCC[S@@+]([O-])c1sc2nc(-c3cnc(NC)nc3)cc(-c3ccccc3)c2c1N [60A]
30 | 41 | CCCC[S@+]([O-])c1sc2nc(-c3cnc(NC)nc3)cc(-c3ccccc3)c2c1N [60B]
31 | 0.44 | CCCC[S@@+]([O-])c1sc2nc(-c3cnc(N)nc3)cc(-c3ccc(F)cc3)c2c1N [61A]
32 | 24 | CCCC[S@+]([O-])c1sc2nc(-c3cnc(N)nc3)cc(-c3ccc(F)cc3)c2c1N [61B]
33 | 0.56 | CCCC[S@@+]([O-])c1sc2nc(-c3ccc(N)nc3)cc(-c3ccccc3)c2c1N [62A]
34 | 64 | CCCC[S@+]([O-])c1sc2nc(-c3ccc(N)nc3)cc(-c3ccccc3)c2c1N [62B]
35 | 0.36 | CCCC[S@@+]([O-])c1sc2nc(-c3cnc(N)nc3)cc(-c3ccccc3)c2c1N [64A]
36 | > 100 | CCCC[S@+]([O-])c1sc2nc(-c3cnc(N)nc3)cc(-c3ccccc3)c2c1N [64B]
37 | 0.59 | COCCC[S@@+]([O-])c1sc2nc(-c3cnc(N)nc3)cc(-c3ccccc3)c2c1N [65A]
38 | 30 | COCCC[S@+]([O-])c1sc2nc(-c3cnc(N)nc3)cc(-c3ccccc3)c2c1N [65B]
39 | 0.48 | COCCC[S@@+]([O-])c1sc2nc(-c3cccnc3)cc(-c3ccccc3)c2c1N [68A]
40 | > 100 | COCCC[S@+]([O-])c1sc2nc(-c3cccnc3)cc(-c3ccccc3)c2c1N [68B]
41 | 0.77 | COCCC[S@@+]([O-])c1sc2nc(-c3cccnc3)cc(-c3cn(C)cn3)c2c1N [89A]
42 | 74 | COCCC[S@+]([O-])c1sc2nc(-c3cccnc3)cc(-c3cn(C)cn3)c2c1N [89B]

same assay, conditions: read-out: Enzyme Inhibitor IC50 (nM) at 5 nM 15-PGDH; 5 nM recombinant 15-PGDH

Row | IC50 [nM] | SMILES
43 | > 500 | CCCC[S@+]([O-])c1sc2nc(-c3nccs3)cc(-c3cn(C)c(C)n3)c2c1N (stereo in doubt) [compound 3, 2-(butylsulfinyl)-4-(1,2-dimethyl-1H-imidazol-4-yl)-6-(thiazol-2-yl)thieno[2,3-b]pyridin-3-amine]
44 | 1.4 | CCCC[S@@+]([O-])c1sc2nc(-c3nccs3)cc(-c3cn(C)c(C)n3)c2c1N (stereo in doubt) [compound 4, 2-(butylsulfinyl)-4-(1,2-dimethyl-1H-imidazol-4-yl)-6-(thiazol-2-yl)thieno[2,3-b]pyridin-3-amine]
45 | 2.3 | CCCC[S+]([O-])c1sc2nc(-c3nccs3)cc(-c3cn(C)c(C)n3)c2c1N (centres unmarked) [compound 2, 2-(butylsulfinyl)-4-(1,2-dimethyl-1H-imidazol-4-yl)-6-(thiazol-2-yl)thieno[2,3-b]pyridin-3-amine]
46 | 86 | CCCC[S+]([O-])c1sc2nc(-c3nccs3)cc3c2c1Nc1ncncc1-3 (centres unmarked) [compound 6, 5-(butylsulfinyl)-2-(thiazol-2-yl)-6H-pyrimido[4,5-c]thieno[2,3,4-ij][2,7]naphthyridine]
47 | 132 | CCCC[S+]([O-])c1sc2nc(-c3nccs3)cc3c4c(nc1c23)NC=NC=4 (centres unmarked) [compound 7, 5-(butylsulfinyl)-2-(thiazol-2-yl)-7H-pyrimido[4,5-c]thieno[2,3,4-ij][2,7]naphthyridine]

test system: IL1-β treated A549 cells; experiment: induction of PGE2 from IL1-β treated A549 cells; type: cell-based; conditions: Homo sapiens; A549 cells stimulated with IL1-β for 24 hours

Row | EC50 [nM] | SMILES
48 | < 4 | CCCC[S+]([O-])c1sc2nc(-c3cnc(N)nc3)cc(-c3ccccc3)c2c1N (centres unmarked)

test system: not listed separately; experiment: metabolic stability in mouse liver microsomes; type: in vitro ADME; conditions: LC-MS, FIGS. 2 and 3
Description: The metabolic stability was determined by incubating the compounds at a concentration of 10 μM in the presence of microsomes derived from mouse livers. Compound concentrations were monitored by HPLC/MS over time, and half-lives were calculated from the slope of the best-fit line for Ln[compound] vs time.
Metabolite M8 is a thioamide resulting from oxidative cleavage of the thiazole ring. By contrast, 6 membered ring heteroaryls cannot form this metabolite or the toxic byproducts.

Row | SMILES | metabolites formed on incubation with mouse liver microsomes
49 | CCCC[S+]([O-])c1sc2nc(-c3nccs3)cc(-c3cnc(C)n3C)c2c1N (centres unmarked) [2-(butylsulfinyl)-4-(1,2-dimethyl-1H-imidazol-5-yl)-6-(thiazol-2-yl)thieno[2,3-b]pyridin-3-amine] | formation of metabolites derived from oxidation of the thiazole

test system: not listed separately; experiment: chemical stability of the isolated product; type: physicochemical; conditions: cyclizes completely during 10 days to Examples 6 and 7
From the text: Rather, it cyclized and oxidized as described below.
The desired product 2-(butylsulfinyl)-4-(pyrimidin-5-yl)-6-(thiazol-2-yl)thieno[2,3-b]pyridin-3-amine (Example 5-4) is unstable and cyclizes completely during 10 days to Example 6, (5-(butylsulfinyl)-2-(thiazol-2-yl)-6H-pyrimido[4,5-c]thieno[2,3,4-ij][2,7]naphthyridine) and Example 7, (5-(butylsulfinyl)-2-(thiazol-2-yl)-7H-pyrimido[4,5-c]thieno[2,3,4-ij][2,7]naphthyridine) with Example 6 being the major product. The cyclized products are separable on preparative HPLC: 21.2×250 mm Kinetex 5 μm EVO C18 100 Å reversed phase column using a 2:1 ratio of water to CH3CN with a 10 mL/min flow rate and 100 μL injection volume.

Row | stability of the compound | SMILES
50 | unstable | CCCC[S+]([O-])c1sc2nc(-c3nccs3)cc(-c3cncnc3)c2c1N (centres unmarked) [Example 5-4, 2-(butylsulfinyl)-4-(pyrimidin-5-yl)-6-(thiazol-2-yl)thieno[2,3-b]pyridin-3-amine]

— patent US20240043440A1, “COMPOSITIONS AND METHODS OF MODULATING SHORT-CHAIN DEHYDROGENASE ACTIVITY” (CASE WESTERN RESERVE UNIVERSITY, priority 2017, published 2024)
